From ChEMBL document CHEMBL1201862, “PubChem BioAssay data set” (2004)
The source made the active and inactive calls.

Experiments:
[1] = target: Insulin-degrading enzyme (Homo sapiens, UniProt P14735); test: Dose Response: Fluorescence polarization-based cell-based high throughput dose response assay for inhibitors of insulin-degrading enzyme (IDE). [Related pubchem assays: 434962 (Primary screen (IDE inhibitors in singlicate)), 449730 (Counterscreen (Cytotoxicity in triplicate)), 435028 (Confirmation (IDE inhibitors in triplicate)), 434984 (Summary …; assay type: functional
Chain of Insulin-degrading enzyme (P14735 whole entry): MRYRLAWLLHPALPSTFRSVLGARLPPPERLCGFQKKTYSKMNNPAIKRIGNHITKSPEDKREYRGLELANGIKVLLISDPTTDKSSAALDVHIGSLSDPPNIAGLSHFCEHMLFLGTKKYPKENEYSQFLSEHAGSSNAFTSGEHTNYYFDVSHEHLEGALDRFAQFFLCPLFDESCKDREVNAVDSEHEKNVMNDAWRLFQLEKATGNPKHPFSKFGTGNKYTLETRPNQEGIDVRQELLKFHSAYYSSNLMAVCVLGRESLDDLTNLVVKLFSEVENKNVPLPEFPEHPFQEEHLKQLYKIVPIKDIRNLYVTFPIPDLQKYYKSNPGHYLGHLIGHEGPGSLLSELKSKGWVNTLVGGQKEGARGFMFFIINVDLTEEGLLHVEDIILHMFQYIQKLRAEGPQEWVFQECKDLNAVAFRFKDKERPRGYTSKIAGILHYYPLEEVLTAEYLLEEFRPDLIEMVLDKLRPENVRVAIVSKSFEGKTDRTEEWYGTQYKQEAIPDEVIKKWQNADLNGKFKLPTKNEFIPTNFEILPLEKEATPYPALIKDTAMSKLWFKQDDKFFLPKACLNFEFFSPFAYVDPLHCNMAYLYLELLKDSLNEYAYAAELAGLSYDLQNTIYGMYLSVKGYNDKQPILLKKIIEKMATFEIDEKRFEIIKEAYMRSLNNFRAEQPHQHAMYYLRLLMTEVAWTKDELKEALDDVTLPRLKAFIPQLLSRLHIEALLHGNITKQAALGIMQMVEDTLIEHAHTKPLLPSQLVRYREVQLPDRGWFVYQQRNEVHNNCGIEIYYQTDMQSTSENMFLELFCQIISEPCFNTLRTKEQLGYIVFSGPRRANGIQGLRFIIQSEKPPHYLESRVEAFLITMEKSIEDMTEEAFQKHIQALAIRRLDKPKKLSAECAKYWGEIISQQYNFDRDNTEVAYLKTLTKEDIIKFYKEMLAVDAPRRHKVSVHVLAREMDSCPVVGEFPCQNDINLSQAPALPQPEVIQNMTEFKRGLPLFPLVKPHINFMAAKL

[2] = Counterscreen for IDE inhibitors: Luminescence-based cell-based high throughput dose response assay to identify compounds that are cytotoxic to HEK cells. [Related pubchem assays: 434962 (Primary screen (IDE inhibitors in singlicate)), 449730 (Counterscreen (Cytotoxicity in triplicate)), 435028 (Confirmation (IDE inhibitors in triplicate)) …; assay type: functional; settings: HEK293
[3] = target: T1, Estrogen receptor (Homo sapiens, UniProt P03372);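 also: potency for inhibiting coactivator peptide recruitment to the receptor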
T1 sequence (P03372 whole entry): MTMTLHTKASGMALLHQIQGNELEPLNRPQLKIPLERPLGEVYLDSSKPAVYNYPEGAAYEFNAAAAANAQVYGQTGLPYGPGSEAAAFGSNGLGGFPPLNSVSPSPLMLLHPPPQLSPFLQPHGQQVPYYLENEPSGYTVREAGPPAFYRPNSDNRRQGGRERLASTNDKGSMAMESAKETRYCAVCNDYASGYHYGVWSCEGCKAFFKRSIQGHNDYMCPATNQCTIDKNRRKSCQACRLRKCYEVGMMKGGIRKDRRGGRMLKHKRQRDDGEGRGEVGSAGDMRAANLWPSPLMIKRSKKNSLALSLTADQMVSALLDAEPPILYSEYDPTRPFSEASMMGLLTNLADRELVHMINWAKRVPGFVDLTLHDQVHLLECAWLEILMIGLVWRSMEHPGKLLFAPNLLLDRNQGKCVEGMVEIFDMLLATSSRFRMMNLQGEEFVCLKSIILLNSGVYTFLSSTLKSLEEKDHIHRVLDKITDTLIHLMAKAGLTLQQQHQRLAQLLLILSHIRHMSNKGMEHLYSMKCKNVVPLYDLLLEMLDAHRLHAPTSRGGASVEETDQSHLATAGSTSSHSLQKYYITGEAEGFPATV

[4] = target: T2, Carboxy-terminal domain RNA polymerase II polypeptide A small phosphatase 1 (Homo sapiens, UniProt Q9GZU7); test: inhibitors of CTDSP1, concentration-response testing, biochemical assay, absorbance-based, actives from ultra-high-throughput screening (AID 540297); assay type: functional
T2 sequence (Q9GZU7 whole entry): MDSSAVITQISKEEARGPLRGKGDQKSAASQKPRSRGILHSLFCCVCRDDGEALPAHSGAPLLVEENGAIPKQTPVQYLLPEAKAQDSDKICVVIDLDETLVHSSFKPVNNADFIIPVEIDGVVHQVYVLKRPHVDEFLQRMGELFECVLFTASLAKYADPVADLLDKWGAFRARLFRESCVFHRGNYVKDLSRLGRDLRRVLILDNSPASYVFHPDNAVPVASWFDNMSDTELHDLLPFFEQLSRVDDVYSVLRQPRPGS

[5] = HepG2 cell cytotoxicity, dose response, cytotoxicity control, plate reader, dry powder samples (AID 1159569); assay type: functional, cell-based;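 also: inhibitor potency with signal falling toward the positive control level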
[6] = intracellular Trypanosoma cruzi inhibitors in host cells – cell-based, plate reader, cherry-pick samples, set 3, dose response (AID 651818); assay type: functional;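 also: compounds incubated with infected cells for about four days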
[7] = P. falciparum ATP4 D1247Y mutant growth inhibitors, dose response, NITD609-resistant line, SYBR Green, dry powder (AID 1159571); assay type: functional, cell-based;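 also: parasites synchronized at ring stage by sorbitol before testing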
[8] = P. falciparum Dd2 growth inhibitors, dose response, SYBR Green, cherry-picked samples (AID 1159567); assay type: functional, cell-based
[9] = P. falciparum Dd2 growth inhibitors, dose response, SYBR Green, dry powder samples (AID 1159566); assay type: functional, cell-based;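 also: potency for growth inhibition with lower SYBR green DNA signal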
[10] = P. falciparum 3D7-ScDHODH growth inhibitors, dose response, SYBR Green, dry powder samples (AID 1159570); assay type: functional, cell-based;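 also: parasite growth measured after 72 hours of compound exposure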
[11] = HepG2 cell cytotoxicity, dose response, cytotoxicity control, cherry-picked samples (AID 1159577); assay type: functional, cell-based
[12] = target: T3, Low molecular weight phosphotyrosine protein phosphatase (Homo sapiens, UniProt P24666); test: LMPTP phosphatase inhibitors, colorimetric pNPP readout, dose response, orthogonal assay, biochemical, absorbance, pNPP substrate, LMPTP-A isoform, set 2 (AID 743308); assay type: functional
T3 sequence (P24666 whole entry): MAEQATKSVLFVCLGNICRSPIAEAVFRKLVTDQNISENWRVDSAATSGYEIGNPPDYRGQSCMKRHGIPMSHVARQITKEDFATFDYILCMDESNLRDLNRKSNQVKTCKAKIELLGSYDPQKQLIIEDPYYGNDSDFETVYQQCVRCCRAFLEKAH

[13] = target: T3, Low molecular weight phosphotyrosine protein phosphatase; test: LMPTP phosphatase inhibitors, dose response, biochemical, OMFP substrate, fluorescence intensity, set 2 (AID 743307); assay type: functional
[14] = target: Beta Lactamase (Pseudomonas aeruginosa, UniProt Q932Y6); test: beta-lactamase reporter inhibitor potency, dose response, artefact control for TLR9-MyD88 binding inhibitor project, BLA reporter cells, FRET fluorescence (AID 588341); assay type: cell-based;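 also: cell based assay in CHO-K1 cells stably expressing beta-lactamase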
Chain of Beta Lactamase (Q932Y6 whole entry): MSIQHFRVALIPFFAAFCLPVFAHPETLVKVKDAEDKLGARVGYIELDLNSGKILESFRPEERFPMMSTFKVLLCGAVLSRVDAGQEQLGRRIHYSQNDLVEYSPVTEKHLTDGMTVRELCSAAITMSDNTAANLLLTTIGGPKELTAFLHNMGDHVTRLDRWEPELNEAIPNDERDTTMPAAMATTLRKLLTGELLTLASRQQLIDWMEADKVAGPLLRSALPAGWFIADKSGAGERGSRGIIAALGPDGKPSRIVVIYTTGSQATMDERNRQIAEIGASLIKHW

[15] = target: T4, Histone-lysine N-methyltransferase NSD2 (Homo sapiens, UniProt O96028); assay type: biochemical
T4 sequence (O96028 whole entry): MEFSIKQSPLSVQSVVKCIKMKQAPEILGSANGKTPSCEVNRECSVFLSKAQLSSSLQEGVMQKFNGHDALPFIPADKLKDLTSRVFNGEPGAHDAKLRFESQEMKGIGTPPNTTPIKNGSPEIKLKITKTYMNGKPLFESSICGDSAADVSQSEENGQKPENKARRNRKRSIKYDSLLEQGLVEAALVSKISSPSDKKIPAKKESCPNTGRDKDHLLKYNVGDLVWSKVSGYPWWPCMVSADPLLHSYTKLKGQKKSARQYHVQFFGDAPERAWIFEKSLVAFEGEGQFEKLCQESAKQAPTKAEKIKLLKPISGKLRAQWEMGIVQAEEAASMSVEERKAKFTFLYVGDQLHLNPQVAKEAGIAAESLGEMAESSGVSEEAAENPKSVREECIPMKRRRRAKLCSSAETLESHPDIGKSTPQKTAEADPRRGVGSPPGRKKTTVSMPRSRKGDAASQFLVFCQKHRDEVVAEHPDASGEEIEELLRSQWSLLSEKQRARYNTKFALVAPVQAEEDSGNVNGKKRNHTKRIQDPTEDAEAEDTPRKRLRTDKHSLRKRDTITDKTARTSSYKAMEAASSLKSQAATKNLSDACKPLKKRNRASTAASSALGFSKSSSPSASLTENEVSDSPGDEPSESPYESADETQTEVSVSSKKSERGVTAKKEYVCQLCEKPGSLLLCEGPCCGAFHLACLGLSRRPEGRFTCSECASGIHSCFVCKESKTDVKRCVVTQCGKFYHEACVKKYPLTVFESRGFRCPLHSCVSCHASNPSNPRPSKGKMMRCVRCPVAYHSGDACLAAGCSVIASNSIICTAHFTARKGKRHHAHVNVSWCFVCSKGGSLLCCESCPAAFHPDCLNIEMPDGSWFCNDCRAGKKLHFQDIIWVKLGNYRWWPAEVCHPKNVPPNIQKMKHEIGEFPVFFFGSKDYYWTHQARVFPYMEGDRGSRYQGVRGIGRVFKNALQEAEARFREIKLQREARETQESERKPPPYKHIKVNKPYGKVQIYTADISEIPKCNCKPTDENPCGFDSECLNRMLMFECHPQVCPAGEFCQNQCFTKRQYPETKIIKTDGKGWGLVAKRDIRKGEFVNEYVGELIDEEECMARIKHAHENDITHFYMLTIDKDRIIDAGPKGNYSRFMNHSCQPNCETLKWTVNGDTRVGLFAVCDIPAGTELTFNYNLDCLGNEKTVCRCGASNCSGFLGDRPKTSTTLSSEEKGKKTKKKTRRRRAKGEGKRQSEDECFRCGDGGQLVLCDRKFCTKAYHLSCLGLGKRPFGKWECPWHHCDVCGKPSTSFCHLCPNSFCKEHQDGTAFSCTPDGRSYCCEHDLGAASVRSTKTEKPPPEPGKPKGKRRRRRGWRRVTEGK

[16] = target: Heat shock protein HSP 90-alpha (Homo sapiens, UniProt P07900); assay type: functional, organism-based
[17] = THP-1 cell cytotoxicity, dose response, cytotoxicity control for Vif-APOBEC3G degradation inhibitor project, THP-1 cells (AID 1117359); assay type: functional; settings: Human immunodeficiency virus 1, THP-1
[18] = target: Genome polyprotein (dengue virus type 2, UniProt P29990); test: Dengue-2 NS5 methyltransferase inhibitors, primary screen, biochemical, confirmation dose response (AID 588689); assay type: functional
Chain of Genome polyprotein (P29990 2492-3391 limits assumed): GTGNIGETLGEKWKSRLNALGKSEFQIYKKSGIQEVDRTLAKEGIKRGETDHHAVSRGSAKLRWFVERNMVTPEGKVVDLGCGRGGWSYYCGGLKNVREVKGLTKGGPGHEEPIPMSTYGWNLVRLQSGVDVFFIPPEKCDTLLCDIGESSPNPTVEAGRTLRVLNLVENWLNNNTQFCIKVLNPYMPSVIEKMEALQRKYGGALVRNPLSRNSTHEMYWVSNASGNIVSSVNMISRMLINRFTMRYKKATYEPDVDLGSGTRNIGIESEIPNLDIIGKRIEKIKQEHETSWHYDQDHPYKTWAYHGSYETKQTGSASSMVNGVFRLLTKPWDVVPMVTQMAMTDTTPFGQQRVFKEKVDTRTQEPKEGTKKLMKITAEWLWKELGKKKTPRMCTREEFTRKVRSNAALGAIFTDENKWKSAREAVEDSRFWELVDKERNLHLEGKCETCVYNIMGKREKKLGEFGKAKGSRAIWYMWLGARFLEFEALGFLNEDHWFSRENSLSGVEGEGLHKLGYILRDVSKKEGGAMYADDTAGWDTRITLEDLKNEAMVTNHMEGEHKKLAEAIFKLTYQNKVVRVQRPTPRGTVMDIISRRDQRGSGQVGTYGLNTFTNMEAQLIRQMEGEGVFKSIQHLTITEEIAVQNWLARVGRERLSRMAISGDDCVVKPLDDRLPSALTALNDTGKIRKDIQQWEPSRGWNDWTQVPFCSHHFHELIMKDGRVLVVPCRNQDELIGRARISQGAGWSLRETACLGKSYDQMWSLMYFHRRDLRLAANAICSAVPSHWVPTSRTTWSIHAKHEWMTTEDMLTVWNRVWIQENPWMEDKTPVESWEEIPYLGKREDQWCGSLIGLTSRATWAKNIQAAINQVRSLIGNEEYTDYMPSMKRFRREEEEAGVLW

[19] = target: T5, Hexokinase HKDC1 (Homo sapiens, UniProt Q2TB90); test: HKDC1 hexokinase inhibitors, dose response, biochemical, W721R variant (AID 504729); assay type: functional
T5 sequence (Q2TB90 whole entry): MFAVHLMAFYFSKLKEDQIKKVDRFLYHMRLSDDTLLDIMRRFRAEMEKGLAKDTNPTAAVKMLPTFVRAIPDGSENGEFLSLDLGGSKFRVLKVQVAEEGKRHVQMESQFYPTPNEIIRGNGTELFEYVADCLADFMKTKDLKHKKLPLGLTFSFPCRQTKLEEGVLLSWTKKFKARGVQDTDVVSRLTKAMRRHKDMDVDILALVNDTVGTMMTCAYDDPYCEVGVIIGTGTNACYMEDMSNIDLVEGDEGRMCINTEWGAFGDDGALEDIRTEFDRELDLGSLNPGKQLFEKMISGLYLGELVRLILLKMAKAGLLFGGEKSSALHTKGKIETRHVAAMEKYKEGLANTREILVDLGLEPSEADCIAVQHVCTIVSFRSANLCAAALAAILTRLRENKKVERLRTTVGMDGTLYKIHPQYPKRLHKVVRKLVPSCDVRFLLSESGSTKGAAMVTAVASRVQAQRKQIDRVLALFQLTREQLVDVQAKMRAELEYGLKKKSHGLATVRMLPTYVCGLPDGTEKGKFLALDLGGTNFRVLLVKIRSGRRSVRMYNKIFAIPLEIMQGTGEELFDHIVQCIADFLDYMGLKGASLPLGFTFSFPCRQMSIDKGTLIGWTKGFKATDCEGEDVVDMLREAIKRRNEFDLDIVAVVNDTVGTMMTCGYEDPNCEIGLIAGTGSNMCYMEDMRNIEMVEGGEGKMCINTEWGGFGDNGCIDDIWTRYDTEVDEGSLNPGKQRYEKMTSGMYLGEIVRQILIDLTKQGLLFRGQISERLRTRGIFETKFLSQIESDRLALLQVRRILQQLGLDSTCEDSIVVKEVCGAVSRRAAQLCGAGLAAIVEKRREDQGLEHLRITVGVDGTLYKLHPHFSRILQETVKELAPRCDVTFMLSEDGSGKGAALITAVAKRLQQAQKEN

[20] = system: CHO; test: cytotoxicity in TLR9-MyD88 CHO cells, dose response, cytotoxicity control for TLR9-MyD88 binding inhibitor project, cell-based, luminescence (AID 588339); assay type: functional, hamster; settings: Cricetulus griseus;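 also: CHO cells stably coexpressing TLR9 and MyD88 fusions from primary screen; compound exposure lasted 48 hours before viability readout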
[21] = system: Vero; test: West Nile virus antiviral activity, cell-based, CPE readout (AID 1621); assay type: functional; settings: Chlorocebus sabaeus

In the case of `C=CCN(C(=O)COC(=O)c1cc[n+]([O-])cc1)c1nc(-c2ccccc2)cs1`, the IC50 [1] is reported as 4.84 µM (active) and the IC50 [2] is reported as 50.6 µM (not active).
For `Cc1sc2ncnc(SCC(=O)NC(=O)NCc3ccco3)c2c1C`, the IC50 [3] was 11.5 µM (active) and the IC50 [4] was 10.6 µM (active).
In the case of `C[C@H](CO)N1C[C@H](C)[C@H](CN(C)Cc2ccc(C(F)(F)F)cc2)Oc2c(NC(=O)c3nc4ccccc4s3)cccc2C1=O`, the AC50 [5] is reported as 46.2 µM (active), the AC50 [6] is reported as 940 nM (active) and the AC50 [7] is reported as 1.69 µM (active). The AC50 [8] was 2.71 µM (active), the AC50 [9] was 823 nM (active) and the AC50 [10] was 3.74 µM (active). For the same molecule, the AC50 [11] was > 39 µM (inactive).
For `Clc1ccccc1-c1cc(NCCCN2CCCCC2)c2ccccc2n1`, the IC50 [12] was 32.5 µM (inactive) and the IC50 [13] was 11.6 µM (active).
In the case of `O=C1C(Cl)=C(Oc2ccccc2)C(=O)c2ccccc21`, the IC50 [14] is reported as 10.2 µM (inactive), the AC50 [15] is reported as 598 nM (active) and the AC50 [16] is reported as 2.7 µM (active). For the same molecule, the CC50 [17] was > 40 µM (active), the IC50 [18] was 4.63 µM (active) and the IC50 [19] was 4.47 µM (active). For the same molecule, the IC50 [20] was 738 nM (active).
With `CN(C)CCNS(=O)(=O)c1ccc(N2CCN(c3ccc(F)cc3)CC2)c([N+](=O)[O-])c1` the IC50 [21] was 20 µM (active).
